As a reminder, the EC50 is the concentration that produces a half-maximal response.

The test system of one test is NL-RLuc virus. The experiment in a line: Inhibition of HIV replication (NL-RLuc virus, luciferase readout in MT-2 cells). The note with it: Human immunodeficiency virus 1, MT2, 120 h, MT-2 cells infected with NL-RLuc virus, 5 days of incubation, 10% FBS, at least 2 experiments. The test is classed as cell-based. Put shortly:
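EC50 derived via median effect equation from at least 2 experiments, using luciferase expression as virus-growth readout. Replication-competent NL-RLuc reporter virus (nef partly replaced by Renilla luciferase) infected MT-2 cells with serial compound dilutions; 5-day incubation in RPMI 1640 plus 10% FBS.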
On to `COc1ccc(F)c(-c2cnc(C)c([C@H](OC(C)(C)C)C(=O)O)c2N2CCC(C)(C)CC2)c1` [Example 150, (2S)-2-(tert-Butoxy)-2-[4-(4,4-dimethylpiperidin-1-yl)-5-(2-fluoro-5-methoxyphenyl)-2-methylpyridin-3-yl]acetic acid], for which the EC50 was 12 nM. In the case of `Cc1ncc(-c2ccc(OCCc3cccc(F)c3)cn2)c(N2CCC(C)(C)CC2)c1[C@H](OC(C)(C)C)C(=O)O` [Example 304, (2S)-2-(tert-butoxy)-2-[4′-(4,4-dimethylpiperidin-1-yl)-5-[2-(3-fluorophenyl)ethoxy]-6′-methyl-[2,3′-bipyridine]-5′-yl]acetic acid], a half-maximal response (EC50) required 0.5 nM. With `Cc1ccncc1Nc1nc(C)c([C@H](OC(C)(C)C)C(=O)O)c(N2CCC(C)(C)CC2)c1-c1ccc(OCCc2ccc(F)cc2)cc1` [Example 86, (S)-2-(tert-Butoxy)-2-(4-(4,4-dimethylpiperidin-1-yl)-5-(4-(4-fluorophenethoxy)phenyl)-2-methyl-6-((4-methylpyridin-3-yl)amino)pyridin-3-yl)acetic acid], the EC50 was found to be 3 nM. In the case of `Cc1nc(C(N)=O)c(-c2ccc(OCCc3ccc(F)cc3)cc2)c(N2CCC(C)(C)CC2)c1[C@H](OC(C)(C)C)C(=O)O` [Example 13, (S)-2-(tert-Butoxy)-2-(6-carbamoyl-4-(4,4-dimethylpiperidin-1-yl)-5-(4-(4-fluorophenethoxy)phenyl)-2-methylpyridin-3-yl)acetic acid], the EC50 worked out at 10 nM.

Compound `Cc1ncc(-c2cccc(F)c2)c(N2CCC(C)(C)CC2)c1[C@H](OC(C)(C)C)C(=O)O` [Example 133, (2S)-2-(tert-Butoxy)-2-[4-(4,4-dimethylpiperidin-1-yl)-5-(3-fluorophenyl)-2-methylpyridin-3-yl]acetic acid] came in with an EC50 of 4 nM. Consider `Cc1cc(-c2cnc(C)c([C@H](OC(C)(C)C)C(=O)O)c2N2CCC(C)(C)CC2)cnc1OCCc1ccc(F)cc1` [Example 253, (S)-2-(tert-Butoxy)-2-(4-(4,4-dimethylpiperidin-1-yl)-6′-(4-fluorophenethoxy)-5′,6-dimethyl-[3,3′-bipyridin]-5-yl)acetic acid], for which the concentration for a half-maximal effect (EC50) is 1 nM. Still for that read-out and setting: the same measure for `Cc1nc(Nc2ccncc2)c(-c2ccc(OCCc3ccc(F)cc3)cc2)c(N2CCC(C)(C)CC2)c1[C@H](OC(C)(C)C)C(=O)O` [Example 77, (S)-2-(tert-Butoxy)-2-(4-(4,4-dimethylpiperidin-1-yl)-5-(4-(4-fluorophenethoxy)phenyl)-2-methyl-6-(pyridin-4-ylamino)pyridin-3-yl)acetic acid]: 0.6 nM; for `Cc1ncc(-c2ccc(OCc3ccccc3Cl)cn2)c(N2CCC(C)(C)CC2)c1[C@H](OC(C)(C)C)C(=O)O` [Example 336, (2S)-2-(tert-butoxy)-2-{5-[(2-chlorophenyl)methoxy]-4′-(4,4-dimethylpiperidin-1-yl)-6′-methyl-[2,3′-bipyridine]-5′-yl}acetic acid]: 2 nM; for `Cc1ncc(-c2ccc(OCCc3ccc(F)c(Cl)c3)cn2)c(N2CCC(C)(C)CC2)c1[C@H](OC(C)(C)C)C(=O)O` [Example 307, (2S)-2-(tert-butoxy)-2-{5-[2-(3-chloro-4-fluorophenyl)ethoxy]-4′-(4,4-dimethylpiperidin-1-yl)-6′-methyl-[2,3′-bipyridine]-5′-yl}acetic acid]: 1 nM. The same measure, in the same setting: the same measure for `COc1c(Cl)cccc1-c1cnc(C)c([C@H](OC(C)(C)C)C(=O)O)c1N1CCC(C)(C)CC1` [Example 152, (2S)-2-(tert-Butoxy)-2-[5-(3-chloro-2-methoxyphenyl)-4-(4,4-dimethylpiperidin-1-yl)-2-methylpyridin-3-yl]acetic acid]: 60 nM; for `COc1cc(-c2cnc(C)c([C@H](OC(C)(C)C)C(=O)O)c2N2CCC(C)(C)CC2)cnc1OCC(C)C` [Example 410, (S)-2-(tert-Butoxy)-2-(4-(4,4-dimethylpiperidin-1-yl)-6′-isobutoxy-5′-methoxy-6-methyl-[3,3′-bipyridin]-5-yl)acetic acid]: 6 nM.

In turn, `CC1(C)CCN(c2c(-c3ccc(OCCc4ccc(F)cc4)cn3)cnc(Cl)c2[C@H](OC(C)(C)C)C(=O)O)CC1` [Example 225, (2S)-2-(tert-Butoxy)-2-[6′-chloro-4′-(4,4-dimethylpiperidin-1-yl)-5-[2-(4-fluorophenyl)ethoxy]-[2, 3′-bipyridine]-5′-yl]acetic acid] returned an EC50 of 1 nM. For the compound `CCCCOc1ccc(-c2cnc(CC)c([C@H](OC(C)(C)C)C(=O)O)c2N2CCC(C)(C)CC2)nc1` [Example 279, (S)-2-(tert-Butoxy)-2-(5-butoxy-4′-(4,4-dimethylpiperidin-1-yl)-6′-ethyl-[2, 3′-bipyridin]-5′-yl)acetic acid], it took 6 nM to reach a half-maximal effect (EC50). The same measure, in the same setting: the result for `Cc1nn(-c2nc(C)c([C@H](OC(C)(C)C)C(=O)O)c(N3CCC(C)(C)CC3)c2-c2ccc(OCCc3ccc(F)cc3)cc2)c(C)c1C` [Example 75, (S)-2-(tert-Butoxy)-2-(4-(4,4-dimethylpiperidin-1-yl)-5-(4-(4-fluorophenethoxy)phenyl)-2-methyl-6-(3,4,5-trimethyl-H-pyrazol-1-yl)pyridin-3-yl)acetic acid] reads 3 nM; that for `Cc1ccc(CCOc2ccc(-c3cnc(C)c([C@H](OC(C)(C)C)C(=O)O)c3N3CCC(C)(C)CC3)nc2)cc1Cl` [Example 331, (2S)-2-(tert-butoxy)-2-{5-[2-(3-chloro-4-methylphenyl)ethoxy]-4′-(4,4-dimethylpiperidin-1-yl)-6′-methyl-[2,3′-bipyridine]-5′-yl}acetic acid], 0.5 nM; that for `Cc1nc(NC2CC2)c(-c2ccc(OCCc3ccc(F)cc3)cc2)c(N2CCC(C)(C)CC2)c1[C@H](OC(C)(C)C)C(=O)O` [Example 106, (S)-2-(tert-Butoxy)-2-(6-(cyclopropylamino)-4-(4,4-dimethylpiperidin-1-yl)-5-(4-(4-fluorophenethoxy)phenyl)-2-methylpyridin-3-yl)acetic acid], 1 nM. In turn, `Cc1ncc(-c2ccc(OCCc3ccc(F)cc3F)cn2)c(N2CCC(C)(C)CC2)c1[C@H](OC(C)(C)C)C(=O)O` [Example 306, (2S)-2-(tert-butoxy)-2-{5-[2-(2,4-difluorophenyl)ethoxy]-4′-(4,4-dimethylpiperidin-1-yl)-6′-methyl-[2,3′-bipyridine]-5′-yl}acetic acid] had an EC50 of 0.6 nM.

Consider `CCc1ncc(-c2ccc(OCCc3ccc(F)cc3)cn2)c(N2CCC(C)(C)CC2)c1[C@H](OC(C)(C)C)C(=O)O` [Example 270], for which the EC50 was determined as 0.6 nM. With `Cc1ncc(-c2cnc(OCCc3ccc(F)cc3)c(F)c2)c(N2CCC(C)(C)CC2)c1[C@H](OC(C)(C)C)C(=O)O` [Example 118, (S)-2-(tert-Butoxy)-2-(4-(4,4-dimethylpiperidin-1-yl)-5′-fluoro-6′-(4-fluorophenethoxy)-6-methyl-[3, 3′-bipyridin]-5-yl)acetic acid], the concentration giving a half-maximal response (EC50) was 1 nM.

`Cc1nc(-c2cccnc2)c(-c2ccc(OCCc3ccc(F)cc3)cc2)c(N2CCC(C)(C)CC2)c1[C@H](OC(C)(C)C)C(=O)O` [Example 41, (S)-2-(tert-Butoxy)-2-(4-(4,4-dimethylpiperidin-1-yl)-3-(4-(4-fluorophenethoxy)phenyl)-6-methyl-[2, 3′-bipyridin]-5-yl)acetic acid] had a concentration giving a half-maximal response (EC50) of 4 nM.

For `Cc1nc(NCCCN2CCOCC2)c(-c2ccc(OCCc3ccc(F)cc3)cc2)c(N2CCC(C)(C)CC2)c1[C@H](OC(C)(C)C)C(=O)O` [Example 34, (S)-2-(tert-Butoxy)-2-(4-(4,4-dimethylpiperidin-1-yl)-5-(4-(4-fluorophenethoxy)phenyl)-2-methyl-6-((3-morpholinopropyl)amino)pyridin-3-yl)acetic acid], the 50% effective concentration (EC50) amounted to 0.7 nM. In turn, `Cc1ncc(-c2ccc(O)cn2)c(N2CCC(C)(C)CC2)c1[C@H](OC(C)(C)C)C(=O)O` [Example 287, (S)-2-(tert-Butoxy)-2-(4′-(4,4-dimethylpiperidin-1-yl)-5-hydroxy-6′-methyl-[2, 3′-bipyridin]-5′-yl)acetic acid] came in with an EC50 of 379 nM. `COc1cccc(-c2cnc(C)c([C@H](OC(C)(C)C)C(=O)O)c2N2CCC(C)(C)CC2)n1` [Example 189, (S)-2-(tert-Butoxy)-2-(4′-(4,4-dimethylpiperidin-1-yl)-6-methoxy-6′-methyl-[2, 3′-bipyridin]-5′-yl)acetic acid] showed an EC50 of 41 nM.

Take `Cc1nc(N)c(-c2cnc(OCCc3ccccc3F)c(F)c2)c(N2CCC(C)(C)CC2)c1[C@H](OC(C)(C)C)C(=O)O` [Example 117, (S)-2-(2-Amino-4-(4,4-dimethylpiperidin-1-yl)-5′-fluoro-6′-(2-fluorophenethoxy)-6-methyl-[3, 3′-bipyridin]-5-yl)-2-(tert-butoxy)acetic acid]: the EC50 stood at 1 nM.

Regarding `Cc1ncc(-c2ccc(OCCc3ccccc3F)cn2)c(N2CCC(C)(C)CC2)c1[C@H](OC(C)(C)C)C(=O)O` [Example 303, (2S)-2-(tert-butoxy)-2-[4′-(4,4-dimethylpiperidin-1-yl)-5-[2-(2-fluorophenyl)ethoxy]-6′-methyl-[2,3′-bipyridine]-5′-yl]acetic acid], it took 0.6 nM to reach a half-maximal effect (EC50). `Cc1nc(NCCCN(C)C)c(-c2ccc(OCCc3ccc(F)cc3)cc2)c(N2CCC(C)(C)CC2)c1[C@H](OC(C)(C)C)C(=O)O` [Example 40, (S)-2-(tert-Butoxy)-2-(6-((3-(dimethylamino)propyl)amino)-4-(4,4-dimethylpiperidin-1-yl)-5-(4-(4-fluorophenethoxy)phenyl)-2-methylpyridin-3-yl)acetic acid] gave a 50% effective concentration (EC50) of 2 nM.

Still in this test, the particulars now being: MT-2 cells infected with NL-RLuc virus, 5 days of incubation, 10% FBS, at least 2 experiments.
`Cc1ncc(-c2cnc(NCCc3ccc(F)cc3)c(F)c2)c(N2CCC(C)(C)CC2)c1[C@H](OC(C)(C)C)C(=O)O` [Example 416, (S)-2-(tert-Butoxy)-2-(4-(4,4-dimethylpiperidin-1-yl)-5′-fluoro-6′-((4-fluorophenethyl)amino)-6-methyl-[3, 3′-bipyridin]-5-yl)acetic acid]: the EC50 was determined as 0.6 nM.

Values taken from patent US20200055839A1 (priority 2017, published 2020).
